Test results reported in patent US20230190852A1, “COMPOSITIONS AND METHODS FOR JOINT HEALTH” (Unigen, Inc., priority 2013, published 2023).
Where “and” joins values, the source holds several entries; their conditions need not be identical. Equal entries are not always repeated.

Columns and labels:
Format in all cases: in vivo
CD-1 mice [1] = experiment: Nociceptive behavior model elicited by intraplantar injection of formalin; conditions: 200 mg/kg oral
Description: Mice (n=6 per group) were habituated under inverted Plexiglas observation chamber for 30 minutes to allow them to acclimatize to their surroundings. […] Mice were immediately transferred to their individual observational chamber. […] Mirrors positioned behind the chambers enabled observation of the right hind paw when it was obscured from direct view. […] These behavioral reactions observed for the first five minutes are due to direct action of the irritant on sensory nerve endings where is believed to be as a result of inflammation in the later phase. […] Mice were treated with curcumin (50, 100, 150 or 200 mg/kg) or ibuprofen (200 mg/kg) orally half an hour before intraplantar formalin injection.

CD-1 mice [2] = experiment: Visceral pain perception model (Writhing's test, acetic acid)
Description: Mice (n=6 per group) were habituated under an inverted Plexiglas observation chamber for 30 minutes to allow them to acclimatize to their surroundings. Animals were orally administered treatment articles at different doses, […], or vehicle control (propylene glycol) 30 minutes before intraperitoneal administration of freshly made acetic acid solution (0.7% in 0.9% NaCl) at 10 ml/kg using a 26 gauge needle. The experiment was carried out at room temperature. After the challenge, each animal was placed back into its own individual section of the observation chamber and the number of constrictions of the abdominal muscle together with stretching was counted cumulatively over a period of 30 minutes (Collier et al., Br. J. Pharmacol. Chemother. 32:295, 1968).

Wistar rats = experiment: Adjuvant-induced arthritis (AIA) rat model (paw edema, allodynia, ankle width); parameters: Paw edema, Mean ± SD: unit not given beside the values; Allodynia, Mean ± SD / Ankle Width, Mean ± SD: unit not given here; conditions: for reduction in ankle diameter vs. vehicle control / reduction in pain sensitivity (allodynia) / reduction in paw edema vs. vehicle control / Allodynia, Mean ± SD / Paw edema, Mean ± SD: 100 mg/kg oral daily; for Ankle Width, Mean ± SD: AIA rats, oral 100 mg/kg; for Allodynia, Mean ± SD / Paw edema, Mean ± SD: AIA model, Wistar rats
Description: This adjuvant-induced rat arthritis model was used to evaluate the anti-pain and anti-inflammatory activity of a Curcuma:Morus (C:M) composition. Purpose bred female Wistar rats weighing 150-175 g (Charles River Laboratories, Inc., Wilmington, Mass.) were acclimated upon arrival for a week before being assigned randomly to their respective group. The rats were provided with fresh water and rodent chow diet ad libitum while being housed in a temperature controlled room (22.2° C.) on a 12 hour light-dark cycle. Treatment was started a day before antigen inoculation, wherein animals (n=9) were orally gavaged with a positive control ibuprofen, a 1C:1M test article, or a vehicle only control (propylene glycol). On the next day, arthritis was induced by sensitizing rats with an injection of complete Freund's adjuvant containing 5 mg/ml (w/v) suspension of heat killed Mycobacterium tuberculosis in liquid paraffin into the subplantar region of right hind paw of sedated rats (Currey, Ann. Rheum. Dis. 29:314, 1970; Whitehouse et al., Can. Med. Assoc. J. 129:249, 1983) an hour after a second treatment dose.
(§1) Treatment with the controls or test articles was started a day before intraplantar injection of complete adjuvant into the right hind paw. The anti-inflammatory effect of a C:M composition was reflected in the measured change in paw edema. Rats (n=9) were treated orally with 1C:1M composition (200 mg/kg, 100 mg/kg or 50 mg/kg), ibuprofen (100 mg/kg) or vehicle for 14 days. Data are expressed as mean±SD and p-values were calculated against vehicle. Paw edema was measured with the use of a plethysmometer (IITC, Woodland Hills, Calif.; Model 520) on day 1 (before antigen), day 3, 5, 7, 9 and 13 after antigen injection.
Treatment with the controls or test articles was started a day before intraplantar injection of complete adjuvant into the right hind paw. The anti-pain effect of a C:M composition was reflected by allodynia (induced pain). Rats (n=9) were treated orally with 1C:1M composition (200 mg/kg, 100 mg/kg or 50 mg/kg), ibuprofen (100 mg/kg) or vehicle for 14 days. Data are expressed as mean±SD and p-values were calculated against vehicle. Allodynia was evaluated by responsiveness to pressure applied perpendicular to the central plantar surface of the right hind paw using the Randall—Selitto test (Randall and Selitto, Arch. Intl Pharmacodyn Therap. 133:233, 1957). A positive response to the applied mechanical pressure, noted by sharp withdrawal of the paw, was recorded automatically by an electronic Von Frey Anesthesiometer (2390 series Electrovonfrey, IITC, Woodland Hills, Calif.) (Vivancos et al., 2004).
as §1, with “ankle diameter.” for “paw edema.”, “vehicle Ankle diameter” for “vehicle. Paw edema”, “using” for “with the use of”, “Pocket Thickness Gage (7309, Mitutoyo corp. Japan)” for “plethysmometer (IITC, Woodland Hills, Calif.; Model 520)”

[3] = 200 mg/kg oral, vs vehicle, CD-1 mice

Question: With `CC(C)Cc1ccc(C(C)C(=O)O)cc1` (centres unmarked) [Ibuprofen] as the compound, how does the “Pain Sensitivity 20-40 Minutes after Formalin Injection % ↓ vs. Vehicle” value (CD-1 mice [1]) read?
Answer: Its value is 63.5%.

Question: And the “Max % inhibition of visceral pain sensitivity” value (CD-1 mice [2]; 100 mg/kg oral)?
Answer: Its value is 67.6%.

Question: What about the “Visceral Pain Sensitivity % ↓ vs. Vehicle” value (CD-1 mice [2]; 100 mg/kg oral) of the same compound?
Answer: Its value is 56.1%.

Question: What about the “% reduction of pain behavior” value (CD-1 mice [2]; 200 mg/kg oral) of the same compound?
Answer: The value was 67.4% and 46.0%.

Question: What about the “number of abdominal constrictions / behavioral responses in 30 minutes, Mean ± SD” value (CD-1 mice [2]; 200 mg/kg oral) of the same compound?
Answer: The value was 25.3±14.3 and 41.8±12.6.

Question: And the “Visceral pain sensitivity, behavioral responses, Mean ± SD” value (CD-1 mice [2]; 200 mg/kg oral 30 min before acetic acid i.p., observed 30 minutes, CD-1 mice)?
Answer: Its value is 34.5 ± 12.7 and 25.3 ± 14.3 and 41.8 ± 12.6.

Question: What about the “Visceral pain sensitivity, % Inhibition” value (CD-1 mice [2]; [3]) of the same compound?
Answer: Its value is 67.4% and 46.0%.

Question: And the “Visceral pain sensitivity, % inhibition vs vehicle” value (CD-1 mice [2]; [3])?
Answer: The value was 64.1%.

Question: And the “reduction in ankle diameter vs. vehicle control” value (Wistar rats; day 3)?
Answer: Its value is 37.2%.

Question: And the “reduction in pain sensitivity (allodynia)” value (“reduction … (allodynia)” below) (Wistar rats; day 3)?
Answer: The value was 31.3%.

Question: What about the “reduction in paw edema vs. vehicle control” value (Wistar rats; day 3) of the same compound?
Answer: Its value is 28.8%.

Question: And the “reduction in ankle diameter vs. vehicle control” value (Wistar rats; day 5)?
Answer: Its value is 34.8%.

Question: What about the “reduction … (allodynia)” value (Wistar rats; day 5) of the same compound?
Answer: The value was 39.5%.

Question: And the “reduction in paw edema vs. vehicle control” value (Wistar rats; day 5)?
Answer: Its value is 21.1%.

Question: What about the “reduction in ankle diameter vs. vehicle control” value (Wistar rats; day 7) of the same compound?
Answer: The value was 36.8%.

Question: And the “reduction … (allodynia)” value (Wistar rats; day 7)?
Answer: Its value is 48.8%.

Question: And the “reduction in paw edema vs. vehicle control” value (Wistar rats; day 7)?
Answer: Its value is 19.4%.

Question: And the “reduction in ankle diameter vs. vehicle control” value (Wistar rats; day 9)?
Answer: Its value is 33.5%.

Question: What about the “reduction … (allodynia)” value (Wistar rats; day 9) of the same compound?
Answer: Its value is 52.5%.

Question: What about the “reduction in paw edema vs. vehicle control” value (Wistar rats; day 9) of the same compound?
Answer: The value was 24.3%.

Question: And the “reduction in ankle diameter vs. vehicle control” value (Wistar rats; day 13)?
Answer: The value was 44.2%.

Question: What about the “reduction … (allodynia)” value (Wistar rats; day 13) of the same compound?
Answer: Its value is 52.5%.

Question: And the “reduction in paw edema vs. vehicle control” value (Wistar rats; day 13)?
Answer: Its value is 32.7%.

Question: And the “Ankle Width, Mean ± SD” value (Wistar rats; Day 3)?
Answer: The value was 1.1 ± 0.1.

Question: And the “Ankle Width, Mean ± SD” value (Wistar rats; Day 5)?
Answer: Its value is 1.0 ± 0.1.

Question: And the “Ankle Width, Mean ± SD” value (Wistar rats; Day 7)?
Answer: Its value is 1.2 ± 0.1.

Question: What about the “Ankle Width, Mean ± SD” value (Wistar rats; Day 9) of the same compound?
Answer: The value was 1.0 ± 0.2.

Question: And the “Ankle Width, Mean ± SD” value (Wistar rats; Day 13)?
Answer: The value was 0.8 ± 0.1.

Question: What about the “Allodynia, Mean ± SD” value (Wistar rats; Day 3) of the same compound?
Answer: Its value is 67.4 ± 5.6.

Question: What about the “Paw edema, Mean ± SD” value (Wistar rats; Day 3) of the same compound?
Answer: The value was 3.5 ± 0.7.

Question: What about the “Allodynia, Mean ± SD” value (Wistar rats; Day 5) of the same compound?
Answer: Its value is 54.8 ± 2.6.

Question: And the “Paw edema, Mean ± SD” value (Wistar rats; Day 5)?
Answer: Its value is 3.1 ± 0.8.

Question: What about the “Allodynia, Mean ± SD” value (Wistar rats; Day 7) of the same compound?
Answer: The value was 43.0 ± 4.6.

Question: And the “Paw edema, Mean ± SD” value (Wistar rats; Day 7)?
Answer: Its value is 3.1 ± 0.7.

Question: What about the “Allodynia, Mean ± SD” value (Wistar rats; Day 9) of the same compound?
Answer: Its value is 38.8 ± 2.3.

Question: What about the “Paw edema, Mean ± SD” value (Wistar rats; Day 9) of the same compound?
Answer: Its value is 2.7 ± 0.6.

Question: And the “Allodynia, Mean ± SD” value (Wistar rats; Day 13)?
Answer: Its value is 32.9 ± 2.6.

Question: What about the “Paw edema, Mean ± SD” value (Wistar rats; Day 13) of the same compound?
Answer: Its value is 2.1 ± 0.58.
